Data published in patent US20230285346A1, “METHODS OF USING FTO INHIBITORS FOR THE TREATMENT OF PULMONARY HYPERTENSION” (Ann and Robert H. Lurie Children's Hospital of Chicago, priority 2022, published 2023).

What was measured:
MCT-induced PH in rats = assay: monocrotaline (MCT)-induced rat PH model; type: in vivo, Sprague Dawley (SD) rats
Procedure: FIGS. 15A, 15B, 15C, 15D, and 15E. […] (A) FB-23-2 chemical structure. (B) Hemodynamic measurement showing decreased RVSP in FB23-2-treated MCT rats. (C) FB23-2 treatment attenuated RV hypertrophy. (D) Representative micrographs of pentachrome staining showing a markedly thickened vessel in Vehicle-treated MCT rats whereas normalized thickness of vessel walls in FB23-2-treated rats. At 2 weeks post-MCT challenge, the rats were treated with either PBS or FB23-2 (3 mg/kg, i.p. twice a day) for 2 weeks. V=vessel, Br=Bronchiole. Scale bar, 20 μm. […] Student's t test.
FIGS. 17A, 17B, and 17C. Decreased RVSP and RV hypertrophy in Meclofenamate-treated MCT rats. (A) representative tracings of RVSP measurement. Mec=Meclofenamate. […] (C) Reduced RV hypertrophy in Meclofenamate-treated MCT rats. CTL, control rats without MCT treatment. *P<0.05; **P<0.01. One-way ANOVA.
FIGS. 18A and 18B. Inhibited pulmonary vascular remodeling in Meclofenamate-treated MCT rats. (A) Representative micrographs of pentachrome staining showing a markedly thickened vessel in PBS-treated MCT rats whereas normalized thickness of vessel walls in Meclofenamate-treated rats. At 2 weeks post-MCT challenge, the rats were treated with either PBS or Meclofenamate for 2 weeks. V=vessel, Br=Bronchiole. Scale bar, 20 μm. (B). Quantification of pulmonary artery (PA) wall thickness. CTL=control rats without MCT treatment. *P<0.05. One-way ANOVA.
FIGS. 19A and 19B. Improved right heart contractility and pulmonary arterial function in Meclofenamate-treated MCT rats. At 2 weeks post-MCT, the rats were treated with either PBS or Meclofenamate for 2 weeks and then subject to echocardiography for assessment of right heart contractility determined by RV fraction area changes (RV FAC) (A), and of pulmonary arterial function by PA acceleration time/ejection time ratio (PA AT/ET) (B). ** P<0.01. Student t test.
Inhibited Arginase expression in lung ECs of Fto^Tie2Cre mice following chronic hypoxia. To identify potential FTO targets in lung ECs, RNA was isolated from lung ECs of WT mice and Fto^Tie2Cre mice at normoxia, 3 days, and 21 days hypoxia for RNA sequencing analysis. Arg1 is one of the top 10 genes induced in hypoxic WT mice but not in hypoxic Fto^Tie2Cre mice. […] It has been shown that substrate L-Arginine levels inversely correlate to PA pressure in patients (19). […] Increased Arginase expression and activity in lung ECs leads to reduced substrate L-Arginine for nitric oxide (NO) synthesis by eNOS and thus impairs NO production (21, 22). Low NO levels affect vasotone and smooth muscle cell growth. […] FTO deficiency reduces the stability of ARG2 mRNA in human PAECs. To determine whether ARG2 (the major isoform in human ECs) is a target of FTO in human PAECs, a stability assay was carried out and the effect of FTO on the decay of ARG2 mRNA was assessed. FTO-silenced and control PAECs were treated with 5 μg/mL actinomycin D to stop the new transcriptional process. Total RNA was then isolated at 0, 3, 6 h post-actinomycin D treatment and quantified by QRT-PCR analysis. The relative ARG2 level was calculated and normalized to β-actin and the ARG2 mRNA half-life time (t1/2) was estimated according to the linear regression analysis (9). […] Increased m^6A demethylase activity and FTO expression in PAECs from IPAH patients compared to donor ECs and FTO-dependent upregulation of ARG2 expression in PAECs of IPAH patients. […] Furthermore, methylated RNA immunoprecipitation (MeRIP)-QRT-PCR analysis confirmed a marked decrease of m^6A ARG2 in IPAH ECs compared to normal ECs from unused donors (FIG. 10). • 7. SMC-specific Fto deletion inhibits hypoxia-induced PH in mice. To determine whether FTO is essential for medial thickening and muscularization of distal pulmonary vessels and development of PAH, novel tamoxifen-inducible Fto^iΔSMC mice were generated by breeding Fto-floxed mice into the genetic background of Myh11-CreER^T2 mice. […]

FTO = FTO (Homo sapiens, UniProt Q9C0B1); details: FTO versus ALKBH5; cited from earlier work
[1] = FB23-2 3 mg/kg, i.p. twice a day for 2 weeks, vs vehicle-treated MCT rats

Chain of FTO (Q9C0B1 whole entry): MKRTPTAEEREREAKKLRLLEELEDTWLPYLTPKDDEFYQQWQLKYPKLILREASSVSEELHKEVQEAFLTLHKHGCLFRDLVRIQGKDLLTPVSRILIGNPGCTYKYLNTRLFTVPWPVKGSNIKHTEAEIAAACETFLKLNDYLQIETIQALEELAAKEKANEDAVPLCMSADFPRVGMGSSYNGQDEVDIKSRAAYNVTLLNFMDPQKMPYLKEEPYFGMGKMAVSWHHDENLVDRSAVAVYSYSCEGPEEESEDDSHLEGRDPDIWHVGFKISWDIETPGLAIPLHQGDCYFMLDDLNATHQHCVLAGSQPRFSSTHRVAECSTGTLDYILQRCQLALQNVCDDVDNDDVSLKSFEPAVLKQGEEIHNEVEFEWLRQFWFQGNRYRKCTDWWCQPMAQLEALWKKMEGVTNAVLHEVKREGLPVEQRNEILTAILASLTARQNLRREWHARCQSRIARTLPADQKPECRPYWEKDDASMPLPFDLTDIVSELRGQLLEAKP

Compound	MCT-induced RVSP increase (MCT-induced PH in rats; FB23-2 3 mg/kg, i.p. twice a day for 2 weeks from 2 weeks post-MCT, measured 4 weeks post-MCT, vs vehicle)	RV hypertrophy determined by RV/LV+septum ratio (MCT-induced PH in rats; FB23-2 3 mg/kg, i.p. twice a day for 2 weeks from 2 weeks post-MCT, vs vehicle)	pulmonary arterial function (echocardiography, PA AT/ET) (MCT-induced PH in rats; [1])	pulmonary vascular remodeling (vessel wall thickness, pentachrome staining) (MCT-induced PH in rats; [1])	RVSP (MCT-induced PH in rats; Meclofenamate 10 mg/kg, p.o., twice a day for 2 weeks from 2 weeks post-MCT, vs PBS-treated MCT rats)	MCT-induced RV hypertrophy (MCT-induced PH in rats; Meclofenamate 10 mg/kg, p.o., twice a day for 2 weeks, vs PBS-treated MCT rats)	PA wall thickness (pentachrome staining; pulmonary vascular remodeling) (MCT-induced PH in rats; Meclofenamate 10 mg/kg, p.o., twice a day for 2 weeks, vs untreated MCT-rats)	right heart contractility, RV fraction area changes (RV FAC), echocardiography (MCT-induced PH in rats; Meclofenamate for 2 weeks from 2 weeks post-MCT, decrease seen in PBS-treated MCT rats)	ratio of PA acceleration time/ejection time (PA AT/ET) (MCT-induced PH in rats; Meclofenamate for 2 weeks from 2 weeks post-MCT, vs PBS-treated MCT rats)	selectivity of FTO inhibition (FTO)
Cc1noc(C)c1-c1cc(Cl)c(Nc2ccccc2C(=O)NO)c(Cl)c1 [FB23-2]	markedly reduced	markedly reduced	improved pulmonary arterial function	reduced pulmonary vascular remodeling	–	–	–	–	–	–
Cc1ccc(Cl)c(Nc2ccccc2C(=O)O)c1Cl [Meclofenamate sodium]	–	–	–	–	drastically decreased	markedly reduced	markedly reduced	reversed	marked increase	selective over ALKBH5
